Experimental findings from patent US11787762B2, “Tetralin and tetrahydroquinoline compounds as inhibitors of HIF-2alpha” (ARCUS BIOSCIENCES, INC., priority 2020, dated 2023) are described below.

pIC50: −log10 of the molar value.

For the assay, the target named is T1, HIF-2α (Homo sapiens, UniProt Q99814).
T1 construct: host or cells: 786-O cells stably transduced with Cignal Lenti HIF Luc Reporter (only the reporter was introduced, not HIF-2α)
T1 sequence (Q99814 whole entry): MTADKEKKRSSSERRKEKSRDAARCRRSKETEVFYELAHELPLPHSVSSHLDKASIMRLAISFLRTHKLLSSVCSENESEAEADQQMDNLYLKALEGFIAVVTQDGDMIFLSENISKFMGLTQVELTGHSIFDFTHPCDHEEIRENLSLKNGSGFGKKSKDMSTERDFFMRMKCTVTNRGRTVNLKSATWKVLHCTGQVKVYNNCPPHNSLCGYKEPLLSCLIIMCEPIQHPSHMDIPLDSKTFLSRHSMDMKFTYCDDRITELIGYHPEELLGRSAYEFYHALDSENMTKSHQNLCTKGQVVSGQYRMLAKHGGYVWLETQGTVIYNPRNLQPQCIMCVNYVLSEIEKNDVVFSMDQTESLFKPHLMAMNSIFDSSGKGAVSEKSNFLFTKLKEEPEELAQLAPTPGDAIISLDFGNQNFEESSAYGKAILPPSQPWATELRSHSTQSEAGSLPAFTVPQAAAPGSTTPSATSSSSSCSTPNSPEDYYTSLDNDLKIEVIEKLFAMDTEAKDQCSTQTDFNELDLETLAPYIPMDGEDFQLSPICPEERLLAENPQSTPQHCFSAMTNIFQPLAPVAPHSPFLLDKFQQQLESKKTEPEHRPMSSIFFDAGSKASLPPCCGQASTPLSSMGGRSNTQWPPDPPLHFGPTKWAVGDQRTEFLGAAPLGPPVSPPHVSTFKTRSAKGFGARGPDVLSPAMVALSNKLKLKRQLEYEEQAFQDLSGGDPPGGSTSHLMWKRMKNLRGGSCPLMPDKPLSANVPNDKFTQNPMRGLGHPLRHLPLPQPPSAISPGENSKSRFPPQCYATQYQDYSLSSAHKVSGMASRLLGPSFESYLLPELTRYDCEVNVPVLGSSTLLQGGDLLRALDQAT
In words: HIF-2α luciferase reporter assay in HIF-Luc-786-O cells. In kind it is cell-based. The following applies: Table 3, 20 hours incubation. In a few lines:
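Luminescence (ONE-Glo) read after 20 h compound incubation, top concentration 50 uM, 1% DMSO, 20,000 HIF-Luc-786-O cells per well. Activity scaled between DMSO maximum and no-cell baseline; four-parameter dose-response fits yielded IC50.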
On the technique in general: Reporter assays use an easily measured gene product as a stand-in for the process of interest.
With `Cc1ccc([C@H]2CC[C@H](F)c3cc(F)cc(C#N)c32)c2c1[C@H](O)C(F)(F)C2` [Example 225, (5S,8R)-8-[(1S)-2,2-difluoro-1-hydroxy-7-methyl-1,3-dihydroinden-4-yl]-3,5-difluoro-5,6,7,8-tetrahydronaphthalene-1-carbonitrile], the pIC50 was over 7.00.
The value for `CC(C)(O)c1ccc([C@H]2CC[C@H](F)c3cc(F)cc(C#N)c32)c2c1[C@H](O)C(F)(F)C2` [Example 226, (5S,8R)-8-[(1S)-2,2-difluoro-1-hydroxy-7-(2-hydroxypropan-2-yl)-1,3-dihydroinden-4-yl]-3,5-difluoro-5,6,7,8-tetrahydronaphthalene-1-carbonitrile] was over 7.00; that for `Cc1ncccc1-c1ncc([C@H]2CC[C@H](F)c3cc(F)cc(C#N)c32)c2c1[C@H](O)[C@H](F)C2` [Example 227, (5S,8S)-3,5-difluoro-8-[(6R,7S)-6-fluoro-7-hydroxy-1-(2-methylpyridin-3-yl)-5H16H17H-cyclopenta[c]pyridin-4-yl]-5,6,7,8-tetrahydronaphthalene-1-carbonitrile] was 6.00 to 7.00; that for `N#Cc1cc(F)cc2c1[C@@H](c1ccc(-c3cccc4ncoc34)c3c1CC(F)(F)[C@H]3O)CC[C@@H]2F` [Example 228, (5S,8R)-8-[(1S)-7-(1,3-benzoxazol-7-yl)-2,2-difluoro-1-hydroxy-1,3-dihydroinden-4-yl]-3,5-difluoro-5,6,7,8-tetrahydronaphthalene-1-carbonitrile] was over 7.00.
In the case of `N#Cc1cc(F)cc2c1[C@@H](c1ccc(-c3cccc(F)c3N)c3c1CC(F)(F)[C@H]3O)CC[C@@H]2F` [Example 229, (5S,8R)-8-[(1S)-7-(2-amino-3-fluorophenyl)-2,2-difluoro-1-hydroxy-1,3-dihydroinden-4-yl]-3,5-difluoro-5,6,7,8-tetrahydronaphthalene-1-carbonitrile], the pIC50 was over 7.00.
Next, `N#Cc1cc(F)cc2c1[C@@H](c1ccc(-c3cnc4c(N)cccn34)c3c1CC(F)(F)[C@H]3O)CC[C@@H]2F` [Example 230, (5S,8R)-8-[(1S)-7-(8-aminoimidazo[1,2-a]pyridin-3-yl)-2,2-difluoro-1-hydroxy-1,3-dihydroinden-4-yl]-3,5-difluoro-5,6,7,8-tetrahydronaphthalene-1-carbonitrile]: over 7.00.
Compound `Cc1nc2ccccn2c1-c1ccc([C@H]2CC[C@H](F)c3cc(F)cc(C#N)c32)c2c1[C@H](O)C(F)(F)C2` [Example 231, (5S,8R)-8-[(1S)-2,2-difluoro-1-hydroxy-7-(2-methylimidazo[1,2-a]pyridin-3-yl)-1,3-dihydroinden-4-yl]-3,5-difluoro-5,6,7,8-tetrahydronaphthalene-1-carbonitrile] gave a pIC50 of 6.00 to 7.00.
The compound `Cc1ncn(C)c1-c1ccc([C@H]2CC[C@H](F)c3cc(F)cc(C#N)c32)c2c1[C@H](O)C(F)(F)C2` [Example 232, (5S,8R)-8-[(1S)-7-(3,5-dimethylimidazol-4-yl)-2,2-difluoro-1-hydroxy-1,3-dihydroinden-4-yl]-3,5-difluoro-5,6,7,8-tetrahydronaphthalene-1-carbonitrile] showed a pIC50 of over 7.00.
The value for `N#Cc1cc(F)cc2c1[C@@H](c1ccc(-c3cnc4ncccn34)c3c1CC(F)(F)[C@H]3O)CC[C@@H]2F` [Example 233, (5S,8R)-8-[(1S)-2,2-difluoro-1-hydroxy-7-imidazo[1,2-a]pyrimidin-3-yl-1,3-dihydroinden-4-yl]-3,5-difluoro-5,6,7,8-tetrahydronaphthalene-1-carbonitrile] was 6.00 to 7.00.
As for `N#Cc1cc(F)cc2c1[C@@H](c1ccc(-c3cnc4cnccn34)c3c1CC(F)(F)[C@H]3O)CC[C@@H]2F` [Example 234, (5S,8R)-8-[(1S)-2,2-difluoro-1-hydroxy-7-imidazo[1,2-a]pyrazin-3-yl-1,3-dihydroinden-4-yl]-3,5-difluoro-5,6,7,8-tetrahydronaphthalene-1-carbonitrile], the pIC50 is over 7.00.
For the compound `N#Cc1cc(F)cc2c1[C@@H](c1ccc(-c3cc(F)ccc3N)c3c1CC(F)(F)[C@H]3O)CC[C@@H]2F` [Example 235, (5S,8R)-8-[(1S)-7-(2-amino-5-fluorophenyl)-2,2-difluoro-1-hydroxy-1,3-dihydroinden-4-yl]-3,5-difluoro-5,6,7,8-tetrahydronaphthalene-1-carbonitrile], the pIC50 is over 7.00.
For `Cc1ncc(-c2ccc([C@H]3CC[C@H](F)c4cc(F)cc(C#N)c43)c3c2[C@H](O)C(F)(F)C3)n1C` [Example 236, (5S,8R)-8-[(1S)-7-(2,3-dimethylimidazol-4-yl)-2,2-difluoro-1-hydroxy-1,3-dihydroinden-4-yl]-3,5-difluoro-5,6,7,8-tetrahydronaphthalene-1-carbonitrile], the pIC50 is over 7.00.
The value for `N#Cc1cc(F)cc2c1[C@@H](c1ccc(-c3cnc4cccnn34)c3c1CC(F)(F)[C@H]3O)CC[C@@H]2F` [Example 237, (5S,8R)-8-[(1S)-2,2-difluoro-1-hydroxy-7-imidazo[1,2-b]pyridazin-3-yl-1,3-dihydroinden-4-yl]-3,5-difluoro-5,6,7,8-tetrahydronaphthalene-1-carbonitrile] was over 7.00.
Compound `Cn1ccnc1-c1ccc([C@H]2CC[C@H](F)c3cc(F)cc(C#N)c32)c2c1[C@H](O)C(F)(F)C2` [Example 238, (5S,8R)-8-[(1S)-2,2-difluoro-1-hydroxy-7-(1-methylimidazol-2-yl)-1,3-dihydroinden-4-yl]-3,5-difluoro-5,6,7,8-tetrahydronaphthalene-1-carbonitrile] showed a negative logarithm of the IC50 (pIC50) of 6.00 to 7.00.
In the case of `N#Cc1cc(F)cc2c1[C@@H](c1ccc(-c3cnc4ccccn34)c3c1CC(F)(F)[C@H]3O)CC[C@@H]2F` [Example 239, (5S,8R)-8-[(1S)-2,2-difluoro-1-hydroxy-7-imidazo[1,2-a]pyridin-3-yl-1,3-dihydroinden-4-yl]-3,5-difluoro-5,6,7,8-tetrahydronaphthalene-1-carbonitrile], the pIC50 was over 7.00.
`N#Cc1cc(F)cc2c1[C@@H](c1ccc(-c3c[nH]c4ncccc34)c3c1CC(F)(F)[C@H]3O)CC[C@@H]2F` [Example 243, (5S,8R)-8-[(1S)-2,2-difluoro-1-hydroxy-7-{1H-pyrrolo[2,3-b]pyridin-3-yl}-2,3-dihydro-1H-inden-4-yl]-3,5-difluoro-5,6,7,8-tetrahydronaphthalene-1-carbonitrile] had a pIC50 of 6.00 to 7.00.
For `Cc1cccnc1-c1ccc([C@H]2CC[C@H](F)c3cc(F)cc(C#N)c32)c2c1[C@H](O)C(F)(F)C2` [Example 244, (5S,8R)-8-[(1S)-2,2-difluoro-1-hydroxy-7-(3-methylpyridin-2-yl)-2,3-dihydro-1H-inden-4-yl]-3,5-difluoro-5,6,7,8-tetrahydronaphthalene-1-carbonitrile], the pIC50 was over 7.00.
Compound `N#Cc1cc(F)cc2c1[C@@H](c1ccc(-c3cccn4ccnc34)c3c1CC(F)(F)[C@H]3O)CC[C@@H]2F` [Example 245, (5S,8R)-8-[(1S)-2,2-difluoro-1-hydroxy-7-{imidazo[1,2-a]pyridin-8-yl}-2,3-dihydro-1H-inden-4-yl]-3,5-difluoro-5,6,7,8-tetrahydronaphthalene-1-carbonitrile] gave a pIC50 of 6.00 to 7.00.

In general, pIC50 refers to the negative decadic logarithm of the IC50, by convention in mol/L. Low values mean a high IC50, high ones a low IC50.
